Here are results for two molecules from patent publication US12319641B2, “Lobaric acid derivative having PTP-1B inhibitory activity, preparation method therefor and use thereof” (SNBIOSCIENCE INC., priority 2019, dated 2025).

Like-named read-outs stand apart in the source and are kept apart here.

Test [1] deals with db/db mice (type 2 diabetes model animal). Kind of test: Blood glucose after daily oral administration in diabetic disease model animals. In kind it is in vivo. The following applies: for antidiabetic effects by oral administration: diabetic disease model animals. The protocol: To more accurately measure antidiabetic effects of dimethyl lobamide, 200 μl of PBS as a control and 50 mg/kg of dimethyl lobamide compound as an experimental group were orally administered daily to 7-week-old male db/db mice (type 2 diabetes model animal, C57/BLKS/J-db/db, Korea Research Institute of Bioscience and Biotechnology). Thereafter, blood glucose was measured once a week. At this time, after oral administration, blood glucose was measured after fasting for 6 hours.

Test [2] has as its target T1, protein tyrosine phosphatase-1B (PTP-1B) (Homo sapiens, UniProt P18031).
T1 construct: purchased Bioneer, Korea
T1 sequence (P18031 1-435): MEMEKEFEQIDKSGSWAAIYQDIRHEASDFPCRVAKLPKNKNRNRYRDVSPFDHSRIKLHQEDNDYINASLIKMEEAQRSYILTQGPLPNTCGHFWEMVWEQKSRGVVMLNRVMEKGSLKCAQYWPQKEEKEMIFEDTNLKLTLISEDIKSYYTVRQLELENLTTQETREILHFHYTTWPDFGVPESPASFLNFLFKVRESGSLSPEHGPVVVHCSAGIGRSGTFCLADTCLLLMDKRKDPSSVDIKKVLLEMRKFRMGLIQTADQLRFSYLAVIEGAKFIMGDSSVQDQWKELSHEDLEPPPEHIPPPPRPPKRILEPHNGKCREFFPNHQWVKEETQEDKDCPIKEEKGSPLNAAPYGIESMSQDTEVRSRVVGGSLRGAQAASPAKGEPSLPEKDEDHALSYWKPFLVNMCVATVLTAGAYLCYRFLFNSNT
The following applies: comparison compounds; lobarstin from Korean Patent Registration No. 10-1481141; read-out: IC50 of PTP-1B inhibitory activity, comparison value; cited from earlier work.

In test [3] the target is T1, protein tyrosine phosphatase-1B (PTP-1B). Kind of test: PTP-1B inhibitory activity, enzyme activity measured spectroscopically with pNPP substrate. In kind it is biochemical. As to the method: In order to analyze protein tyrosine phosphatase-1B (PTP-1B) inhibitory activity, enzyme activity was measured spectroscopically.
Specifically, to 0.5 μg/mL of PTP-1B (Bioneer, Korea), PTP-1B buffer (50 mM Bis-tris buffer, pH 6.5, 1 mM EDTA, 1 mM DTT), dimethyl lobamide (M11A7) (0, 0.4, 0.8, 1.6, 3.12, 6.25, 12.5, 25 nM) and the substrate pNPP (para Nitrophenyl phosphate, Sigma, USA) were added and reacted at room temperature for 30 minutes. Then, 10 N NaOH was added thereto, followed by reaction at room temperature for 5 minutes to terminate the reaction between PTP-1B, dimethyl lobamide and the substrate. Thereafter, the absorbance was measured at 405 nm.

Test [4] in a line: Body weight after oral administration in diabetic disease model animals. Type of test: in vivo. The following applies: db/db mice; for change in body weight compared to the control: oral administration. The protocol: To 7-week-old male db/db mice (type 2 diabetes model animal, C57/BLKS/J-db/db, Korea Research Institute of Bioscience and Biotechnology), 200 μl of PBS as a control and 50 mg/kg of dimethyl lobamide as an experimental group were orally administered daily. After administration, in order to investigate the change in body weight, the compound (dimethyl-lobamide) was orally administered twice a week at a fixed time, and then the body weight was measured using an animal scale.

As to `CCC/C=C1/OC(=O)c2c(Oc3c(O)cc(O)c(C(=O)O)c3CCCCC)cc(OC)cc21` [lobarstin, reference compound], the “antidiabetic effects by oral administration” value in test [1] is reported as “no antidiabetic effects by oral administration”. Further, the IC50 (usually the point on the concentration scale where inhibition reaches its midpoint) in test [2] was 154 nM.

For `CCCCCc1c(Oc2cc(OC)cc(C(=O)CCCC)c2C(=O)N(C)C)c(O)cc(O)c1C(=O)O` [dimethyl lobamide], in test [3] (0-25 nM), the PTP-1B inhibition rate entry is recorded as “increased in a concentration-dependent manner”. The same molecule gave an IC50 in test [3] (0.5 μg/mL PTP-1B, pNPP, room temperature 30 minutes, absorbance 405 nm) of 2.16 nM. Besides, in test [1] (db/db mice, 50 mg/kg oral daily, after fasting 6 hours, day 0), the “average blood glucose on day 0” value worked out at 193 mg/dL. In addition, the “average blood glucose on day 7” value in test [1] (db/db mice, 50 mg/kg oral daily, after fasting 6 hours, day 7) is reported as 194 mg/dL. Besides, in test [1] (db/db mice, 50 mg/kg oral daily, after fasting 6 hours, day 14), the “average blood glucose on day 14” value amounted to 268 mg/dL. The “increase in blood glucose versus control” value in test [1] (db/db mice, 50 mg/kg oral, day 0 to 14) is listed as “lower increase in blood glucose than the control”. Also, the “antidiabetic effects by oral administration” value in test [1] was “could have the antidiabetic effects by oral administration”. Besides, in test [4] (50 mg/kg oral, day 0), the “average body weight on day 0” value is recorded as 30.95 g. The “average body weight on day 7” value in test [4] (50 mg/kg oral, day 7) is reported as 31.78 g. In addition, in test [4] (50 mg/kg oral, day 14), the “average body weight on day 14” value was 34.86 g. Also, the “change in body weight compared to the control” value in test [4] is on record as “body weight reducing effects were demonstrated”; in test [4] (listed as dimethyl-lobamide), “no significant change in body weight”.
